The values that follow are results of earlier work, collected in patent publication US20100284970A1, “BEN[…] H1 RECEPTOR AND/OR NS4B PROTEIN” (AUSPEX PHARMACEUTICALS, INC., priority 2009, published 2010).

This data set has as its target T1, hepatitis C virus NS4B protein (Hepatitis C virus genotype 1b, UniProt Q9WMX2).
T1 construct: hepatitis C virus NS4B protein
Conditions: Einav et al., Nature Biotechnology, 2008, 26, 1019-1027.

T1 sequence (Q9WMX2 1712-1972): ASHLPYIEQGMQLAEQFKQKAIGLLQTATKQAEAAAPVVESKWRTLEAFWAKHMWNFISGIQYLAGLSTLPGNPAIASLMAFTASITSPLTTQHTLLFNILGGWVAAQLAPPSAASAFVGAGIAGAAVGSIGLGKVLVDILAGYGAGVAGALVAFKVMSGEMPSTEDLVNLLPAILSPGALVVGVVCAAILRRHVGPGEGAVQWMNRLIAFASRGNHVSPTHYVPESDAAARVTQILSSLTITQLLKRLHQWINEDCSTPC

In the case of `Clc1ccc(Cn2c(CN3CCCC3)nc3ccccc32)cc1` [Clemizole, 1-[(4-chlorophenyl)methyl]-2-(1-pyrrolidinylmethyl)benzimidazole], the “binding of hepatitis C virus RNA to hepatitis C virus NS4B protein” value is reported as “inhibit the binding of hepatitis C virus RNA to hepatitis C virus NS4B protein”.
